The values that follow come from US8148388B2, “2,4 (4,6) pyrimidine derivatives” (Janssen Pharmaceutica, N.V., priority 2004, dated 2012).

By inhibition is commonly meant the relative decrease from the control value, in per cent.

What all share (type): biochemical
For assay [1], the target named is Lck (h) (Homo sapiens, UniProt P06239). Kind of assay: Lck human kinase assay (glass-fiber filter). Conditions: test concentration of 10^−6M; for inhibition at 1 µM: read-out: C9 score (inhibition of Lck human). An outline of the steps: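 Kinase activity measured as transfer of (^33P) from radiolabeled MgATP to substrate, captured on P30 glass-fiber filtermat, washed in 75 mM phosphoric acid and methanol, then scintillation counted.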
Chain of Lck (h) (P06239 whole entry): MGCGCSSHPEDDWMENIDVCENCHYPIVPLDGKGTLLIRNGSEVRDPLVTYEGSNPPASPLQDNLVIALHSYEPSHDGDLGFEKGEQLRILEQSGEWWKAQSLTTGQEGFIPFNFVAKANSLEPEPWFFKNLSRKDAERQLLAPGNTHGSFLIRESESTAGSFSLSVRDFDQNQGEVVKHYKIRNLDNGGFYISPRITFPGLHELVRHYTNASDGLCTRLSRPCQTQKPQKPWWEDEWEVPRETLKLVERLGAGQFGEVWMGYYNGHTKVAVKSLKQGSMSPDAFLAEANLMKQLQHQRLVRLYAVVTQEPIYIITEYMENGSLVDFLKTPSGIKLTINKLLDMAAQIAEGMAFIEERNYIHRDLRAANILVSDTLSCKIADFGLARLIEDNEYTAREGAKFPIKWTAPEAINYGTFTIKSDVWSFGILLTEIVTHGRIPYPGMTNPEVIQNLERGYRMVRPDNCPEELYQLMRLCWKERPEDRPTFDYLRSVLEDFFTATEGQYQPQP

In assay [2] the target is Fes (h) (Homo sapiens, UniProt P07332). Put plainly: Fes human kinase assay (glass-fiber filter). Conditions: test concentration of 10^−6M; for inhibition at 1 µM: read-out: C4 score (inhibition of Fes human). The method in brief: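 Human Fes (5–10 mU) was incubated with 0.1 mg/ml poly(Glu,Tyr) 4:1 in 8 mM MOPS pH 7.0, 0.2 mM EDTA, 10 mM Mg acetate and [γ-33P]ATP for 40 min at room temperature. The reaction was stopped with phosphoric acid, and substrate phosphorylation was quantified by filter binding and scintillation counting.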
Chain of Fes (h) (P07332 whole entry): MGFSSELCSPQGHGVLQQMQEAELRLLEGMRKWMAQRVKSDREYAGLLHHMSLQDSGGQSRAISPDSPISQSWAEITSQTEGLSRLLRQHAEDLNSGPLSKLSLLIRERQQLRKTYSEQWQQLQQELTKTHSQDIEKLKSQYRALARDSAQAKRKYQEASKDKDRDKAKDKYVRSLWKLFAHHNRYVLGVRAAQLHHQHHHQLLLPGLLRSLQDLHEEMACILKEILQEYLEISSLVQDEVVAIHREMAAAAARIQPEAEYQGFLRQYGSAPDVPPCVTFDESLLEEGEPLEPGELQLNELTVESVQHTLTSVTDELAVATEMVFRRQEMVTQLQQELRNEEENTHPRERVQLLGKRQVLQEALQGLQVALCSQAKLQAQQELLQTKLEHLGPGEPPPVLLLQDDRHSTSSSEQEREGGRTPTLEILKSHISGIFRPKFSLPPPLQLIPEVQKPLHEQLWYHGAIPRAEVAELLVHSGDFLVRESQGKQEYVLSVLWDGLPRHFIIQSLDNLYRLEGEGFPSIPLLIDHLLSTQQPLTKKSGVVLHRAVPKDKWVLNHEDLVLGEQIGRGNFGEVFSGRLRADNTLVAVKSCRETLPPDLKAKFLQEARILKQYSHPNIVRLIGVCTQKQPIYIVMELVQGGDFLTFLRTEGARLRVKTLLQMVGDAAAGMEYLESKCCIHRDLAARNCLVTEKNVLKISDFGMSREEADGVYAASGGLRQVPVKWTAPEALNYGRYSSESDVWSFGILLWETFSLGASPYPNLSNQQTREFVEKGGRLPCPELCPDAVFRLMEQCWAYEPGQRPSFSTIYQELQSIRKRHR

Assay [3] has as its target Abl (h) (Homo sapiens, UniProt P00519). Put plainly: Abl human kinase assay (glass-fiber filter). Conditions: test concentration of 10^−6M; for inhibition at 1 µM: read-out: C1 score (inhibition of Abl human).
Assay [4] addresses cSRC (h) (Homo sapiens, UniProt P12931). Put plainly: cSRC human kinase assay (glass-fiber filter). Particulars: test concentration of 10^−6M; for inhibition at 1 µM: read-out: C3 score (inhibition of cSRC human). The method in brief: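 Radiometric assay: kinase and substrate are incubated with [33P]ATP, with the reaction started by MgATP mix. The reaction is spotted on P30 filtermat, washed in 75 mM phosphoric acid and methanol, and the bound 33P is measured by scintillation counting.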

Assay [5] concerns the target EGFR (h) (Homo sapiens, UniProt P00533). Put plainly: EGFR human kinase assay (glass-fiber filter). Conditions: test concentration of 10^−6M; for inhibition at 1 µM: read-out: C4 score (inhibition of EGFR human). An outline of the steps:
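Human EGFR (5-10 mU) phosphorylated 0.1 mg/ml poly(Glu, Tyr) 4:1 in 8 mM MOPS pH 7.0, 0.2 mM EDTA, 10 mM MnCl2, 10 mM MgAcetate with [γ-33P]ATP at unspecified concentration. Incubation lasted 40 minutes at room temperature, was stopped with phosphoric acid, and filter-bound 33P was counted by scintillation.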

For assay [6], the target named is Flt3 (h) (Homo sapiens, UniProt P36888). Put plainly: Flt3 human kinase assay (glass-fiber filter). Conditions: test concentration of 10^−6M; for inhibition at 1 µM: read-out: C6 score (inhibition of Flt3 human). The method in brief: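 Human Flt3 (5-10 mU) with 50 μM peptide substrate in 8 mM MOPS pH 7.0, 0.2 mM EDTA, 10 mM Mg acetate and [γ-33P]ATP (concentration as required), 40 min at room temperature. Reaction stopped with phosphoric acid; substrate 33P incorporation counted on P30 glass-fiber filter.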
Chain of Flt3 (h) (P36888 27-993): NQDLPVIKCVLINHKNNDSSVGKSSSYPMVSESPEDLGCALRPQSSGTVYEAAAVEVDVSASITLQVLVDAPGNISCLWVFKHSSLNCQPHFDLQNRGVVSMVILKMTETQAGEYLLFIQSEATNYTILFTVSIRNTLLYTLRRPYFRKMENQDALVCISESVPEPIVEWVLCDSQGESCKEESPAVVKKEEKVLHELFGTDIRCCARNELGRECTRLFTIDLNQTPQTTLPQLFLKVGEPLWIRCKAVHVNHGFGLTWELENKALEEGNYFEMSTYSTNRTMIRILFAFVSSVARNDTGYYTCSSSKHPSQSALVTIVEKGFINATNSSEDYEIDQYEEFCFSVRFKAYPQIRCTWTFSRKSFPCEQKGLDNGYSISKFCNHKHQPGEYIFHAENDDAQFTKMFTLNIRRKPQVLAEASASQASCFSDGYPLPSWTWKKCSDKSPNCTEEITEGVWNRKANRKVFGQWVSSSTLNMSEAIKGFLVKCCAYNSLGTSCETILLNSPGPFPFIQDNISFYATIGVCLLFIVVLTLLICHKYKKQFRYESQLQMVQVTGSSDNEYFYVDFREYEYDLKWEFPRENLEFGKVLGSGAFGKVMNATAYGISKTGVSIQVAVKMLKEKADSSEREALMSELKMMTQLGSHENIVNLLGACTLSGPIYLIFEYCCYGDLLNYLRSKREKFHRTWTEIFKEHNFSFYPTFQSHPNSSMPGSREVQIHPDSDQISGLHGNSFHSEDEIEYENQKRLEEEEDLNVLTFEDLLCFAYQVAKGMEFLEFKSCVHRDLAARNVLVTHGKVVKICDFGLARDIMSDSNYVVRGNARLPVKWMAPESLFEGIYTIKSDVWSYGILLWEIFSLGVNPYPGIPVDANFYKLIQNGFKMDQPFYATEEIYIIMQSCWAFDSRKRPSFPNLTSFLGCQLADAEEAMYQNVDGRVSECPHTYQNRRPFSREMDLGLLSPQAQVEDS

Assay [7] concerns the target GSK3B (h) (Homo sapiens, UniProt P49841). Put plainly: GSK3β human kinase assay (glass-fiber filter). Particulars: test concentration of 10^−6M; for inhibition at 1 µM: read-out: C8 score (inhibition of GSK3β human). An outline of the steps:
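Human GSK3β (5-10 mU) with 20 μM phospho GS2 peptide, [γ-^33P]ATP, 8 mM MOPS pH 7.0, 10 mM Mg acetate; 40 min at room temperature. Stopped with phosphoric acid; substrate phosphorylation read as filter-bound radioactivity by scintillation counting.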

Chain of Abl (h) (P00519 whole entry): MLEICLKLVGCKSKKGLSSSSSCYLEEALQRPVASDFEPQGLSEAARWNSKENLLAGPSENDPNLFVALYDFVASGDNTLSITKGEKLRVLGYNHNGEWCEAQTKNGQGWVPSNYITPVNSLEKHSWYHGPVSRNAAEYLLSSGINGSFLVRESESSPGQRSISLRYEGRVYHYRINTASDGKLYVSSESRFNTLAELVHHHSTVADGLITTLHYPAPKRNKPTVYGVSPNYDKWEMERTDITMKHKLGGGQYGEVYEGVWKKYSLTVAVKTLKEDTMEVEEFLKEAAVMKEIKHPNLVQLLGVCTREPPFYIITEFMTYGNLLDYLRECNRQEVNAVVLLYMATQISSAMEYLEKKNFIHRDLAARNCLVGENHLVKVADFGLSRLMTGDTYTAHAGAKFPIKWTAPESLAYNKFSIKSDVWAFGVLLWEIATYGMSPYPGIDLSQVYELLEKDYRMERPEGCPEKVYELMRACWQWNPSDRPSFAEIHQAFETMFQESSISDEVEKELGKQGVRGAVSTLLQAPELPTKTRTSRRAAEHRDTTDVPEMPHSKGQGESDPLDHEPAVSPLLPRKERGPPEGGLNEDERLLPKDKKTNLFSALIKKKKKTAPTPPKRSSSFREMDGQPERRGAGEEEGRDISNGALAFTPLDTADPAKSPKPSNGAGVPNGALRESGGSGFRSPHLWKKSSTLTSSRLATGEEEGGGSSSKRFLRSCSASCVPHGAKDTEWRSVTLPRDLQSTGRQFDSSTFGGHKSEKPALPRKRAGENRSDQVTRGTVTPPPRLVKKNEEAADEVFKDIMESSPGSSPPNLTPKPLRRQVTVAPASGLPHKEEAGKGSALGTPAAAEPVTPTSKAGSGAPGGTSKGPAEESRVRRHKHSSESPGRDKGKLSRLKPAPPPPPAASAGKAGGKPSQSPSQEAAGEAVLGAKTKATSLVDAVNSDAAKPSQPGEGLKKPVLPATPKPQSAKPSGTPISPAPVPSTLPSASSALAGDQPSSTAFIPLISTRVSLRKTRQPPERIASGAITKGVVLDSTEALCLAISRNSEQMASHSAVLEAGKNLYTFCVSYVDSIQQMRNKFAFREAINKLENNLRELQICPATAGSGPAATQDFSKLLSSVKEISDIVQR
Chain of GSK3B (h) (P49841 whole entry): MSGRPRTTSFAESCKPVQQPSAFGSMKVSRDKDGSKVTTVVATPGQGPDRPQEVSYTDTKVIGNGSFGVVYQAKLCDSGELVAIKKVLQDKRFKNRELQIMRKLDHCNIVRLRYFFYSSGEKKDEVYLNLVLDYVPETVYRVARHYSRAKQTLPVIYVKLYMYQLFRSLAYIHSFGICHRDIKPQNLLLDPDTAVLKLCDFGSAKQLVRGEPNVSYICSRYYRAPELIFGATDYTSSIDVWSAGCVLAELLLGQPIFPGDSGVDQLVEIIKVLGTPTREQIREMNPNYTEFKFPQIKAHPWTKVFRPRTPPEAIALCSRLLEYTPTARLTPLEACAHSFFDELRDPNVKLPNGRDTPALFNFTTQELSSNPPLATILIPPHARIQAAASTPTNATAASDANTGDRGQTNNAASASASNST

On to “1H,7H-2,6: 12,8-dimetheno-14H-13,19,1,3,5,7-benzodioxatetraazacycloheneicosine, 22-bromo-15,16,17,18-tetrahydro-11-methoxy- [Compound 35]”, for which, in assay [1], the “C9 score (inhibition of Lck human)” value is recorded as 2 (Score 2=30-60% inhibition). The “C4 score (inhibition of Fes human)” value in assay [2] is listed as 1 (Score 1=10-30% inhibition). Also, the “C1 score (inhibition of Abl human)” value in assay [3] is 4 (Score 4=>80% inhibition). In assay [4], the “C3 score (inhibition of cSRC human)” value is on record as 1 (Score 1=10-30% inhibition). For the same compound, the “C4 score (inhibition of EGFR human)” value in assay [5] is 2 (Score 2=30-60% inhibition). For the same compound, the “C6 score (inhibition of Flt3 human)” value in assay [6] is 2 (Score 2=30-60% inhibition). For the same compound, the “C8 score (inhibition of GSK3β human)” value in assay [7] is given as 1 (Score 1=10-30% inhibition).

“12,8-metheno-6,2-nitrilo-7H-13,1,5,7,16,19-benzoxapentaazacyclodocosine-3-carbonitrile, 23-chloro-1,14,15,16,17,18,19,20-octahydro-11-methoxy-19-methyl-17-oxo- [Compound 32]”: the “C9 score (inhibition of Lck human)” value in assay [1] is 4 (Score 4=>80% inhibition). Moreover, the “C4 score (inhibition of Fes human)” value in assay [2] is 4 (Score 4=>80% inhibition). Further, the “C1 score (inhibition of Abl human)” value in assay [3] was 3 (Score 3=60-80% inhibition). The “C3 score (inhibition of cSRC human)” value in assay [4] was 4 (Score 4=>80% inhibition). Besides, the “C4 score (inhibition of EGFR human)” value in assay [5] is recorded as 4 (Score 4=>80% inhibition). Moreover, the “C6 score (inhibition of Flt3 human)” value in assay [6] is recorded as 4 (Score 4=>80% inhibition). In addition, the “C8 score (inhibition of GSK3β human)” value in assay [7] is recorded as 4 (Score 4=>80% inhibition).

In the case of `N#Cc1cnc2nc1Nc1cccc(c1)OCC(=O)NCCCOc1cccc(c1)N2` [Compound 25, 14,21-dioxa-2,4,8,17,28-pentaazatetracyclo[20.3.1.1~3,7~.1~9,13~]octacosa-1(26),3,5,7(28),9,11,13(27),22,24-nonaene-6-carbonitrile, 16-oxo-], the inhibition at 1 µM is 30 to 60% in assay [1]; 60 to 80% in assay [2]; 10 to 30% in assay [3]; 10 to 30% in assay [4]; 10 to 30% in assay [5]; over 80% in assay [6]. Also, in assay [7], the inhibition at 1 µM was in the range of 30 to 60%.

For `N#Cc1cnc2nc1Nc1cccc(c1)OCC(=O)NCCCCOc1cccc(c1)N2` [Compound 26, 14,22-dioxa-2,4,8,17,29-pentaazatetracyclo[21.3.1.1~3,7~.1~9,13~]nonacosa-1(27),3,5,7(29),9,11,13(28),23,25-nonaene-6-carbonitrile, 16-oxo-], the inhibition at 1 µM in assay [1] is 10 to 30%; in assay [2], 30 to 60%; in assay [3] it was 10 to 30%; in assay [4] it was 10 to 30%; in assay [5], 10 to 30%; in assay [6] it was 60 to 80%. The inhibition at 1 µM in assay [7] lay within 10 to 30%.

Regarding `N#Cc1cnc2nc1Nc1cccc(c1)OCCCNC(=O)COc1cccc(c1)N2` [Compound 28, 14,21-dioxa-2,4,8,18,28-pentaazatetracyclo[20.3.1.1~3,7~.1~9,13~]octacosa-1(26),3,5,7(28),9,11,13(27),22,24-nonaene-6-carbonitrile, 19-oxo-], the inhibition at 1 µM in assay [1] lay in the range of 30 to 60%; in assay [2] it was 10 to 30%; in assay [3], 10 to 30%; in assay [4], 30 to 60%; in assay [6] it was 60 to 80%; in assay [7], 60 to 80%.

Regarding `COc1ccc2c(c1)OCCCCCCOc1ccc(Cl)cc1Nc1cc(ncn1)N2` [Compound 34, 11H-6,10-metheno-5H-dibenzo[b,k][1,13,4,6,8,10]dioxatetraazacyclononadecine, 13-chloro-17,18,19,20,21,22-hexahydro-2-methoxy-], the inhibition at 1 µM in assay [1] lay in the range of 10 to 30%; in assay [2], 10 to 30%; in assay [4] it was 10 to 30%; in assay [5], 30 to 60%; in assay [6], 10 to 30%.

`COc1ccc2cc1OCCCCCCOc1ccc(Br)cc1Nc1cc(ncn1)N2` [Compound 36, 1H,7H-2,6: 12,8-dimetheno-13,20,1,3,5,7-benzodioxatetraazacyclodocosine, 23-bromo-14,15,16,17,18,19-hexahydro-11-methoxy-]: in assay [1], the “C9 score (inhibition of Lck human)” value is 2 (Score 2=30-60% inhibition). Moreover, the “C4 score (inhibition of Fes human)” value in assay [2] is given as 1 (Score 1=10-30% inhibition). Moreover, the “C1 score (inhibition of Abl human)” value in assay [3] is on record as 2 (Score 2=30-60% inhibition). The “C3 score (inhibition of cSRC human)” value in assay [4] is 1 (Score 1=10-30% inhibition). In assay [5], the “C4 score (inhibition of EGFR human)” value is 4 (Score 4=>80% inhibition). For the same compound, the “C6 score (inhibition of Flt3 human)” value in assay [6] is 1 (Score 1=10-30% inhibition).

Consider `COc1ccc2cc1OCCCCCCCOc1ccc(Br)cc1Nc1cc(ncn1)N2` [Compound 37, 1H,7H-2,6: 12,8-dimetheno-14H-13,21,1,3,5,7-benzodioxatetraazacyclotricosine, 24-bromo-15,16,17,18,19,20-hexahydro-11-methoxy-], for which the “C9 score (inhibition of Lck human)” value in assay [1] is given as 2 (Score 2=30-60% inhibition). The “C4 score (inhibition of Fes human)” value in assay [2] was 1 (Score 1=10-30% inhibition). Moreover, the “C1 score (inhibition of Abl human)” value in assay [3] is recorded as 2 (Score 2=30-60% inhibition). Also, the “C3 score (inhibition of cSRC human)” value in assay [4] is 1 (Score 1=10-30% inhibition). Also, the “C4 score (inhibition of EGFR human)” value in assay [5] is reported as 3 (Score 3=60-80% inhibition). Also, in assay [7], the “C8 score (inhibition of GSK3β human)” value is reported as 1 (Score 1=10-30% inhibition).

As for `COc1ccc2cc1OCCNC(=O)CNC(=O)Cc1ccc(Cl)cc1Nc1cc(ncn1)N2` [Compound 103, 1H,7H-6,2:12,8-dimetheno-13,1,3,5,7,16,19-benzoxahexaazacyclotricosine-17,20(14H)-dione, 24-chloro-15,16,18,19,21-pentahydro-11-methoxy-], the inhibition at 1 µM in assay [1] is over 80%; in assay [2], 60 to 80%; in assay [3], over 80%; in assay [4] it was over 80%; in assay [5], over 80%; in assay [7] it was 10 to 30%.

With `COc1ccc2cc1OCCCNC(=O)C(C)(C)NC(=O)Cc1ccc(Cl)cc1Nc1cc(ncn1)N2` [Compound 105, 6,2:8,12-dimetheno-7H-13,1,3,5,7,17,20-benzoxahexaazacyclotetracosine-18,21-dione, 25-chloro-1,14,15,16,17,19,20,22-octahydro-11-methoxy-19,19-dimethyl-], the inhibition at 1 µM in assay [1] was over 80%; in assay [2], 60 to 80%; in assay [3] it was over 80%; in assay [4], over 80%; in assay [5] it was over 80%; in assay [7], 10 to 30%.

`CC1(C)NC(=O)Cc2ccc(Cl)cc2Nc2cc(ncn2)Nc2ccc(OCCCN3CCOCC3)c(c2)OCCNC1=O` [Compound 106, 1H,7H-6,2:8,12-dimetheno-13,1,3,5,7,16,19-benzoxahexaazacyclotricosine-17,20(14H)-dione, 24-chloro-15,16,18,19,21-pentahydro-18,18-dimethyl-11-[3-(4-morpholinyl)propoxy]-]: the inhibition at 1 µM in assay [1] was over 80%; in assay [2], over 80%; in assay [3], over 80%; in assay [4] it was over 80%; in assay [5], over 80%; in assay [6], 10 to 30%. In assay [7], the inhibition at 1 µM lay within 10 to 30%.
